The values that follow come from patent US9808470B2, “Estrogenic components for use in the treatment of neurological disorders” (UNIVERSITE DE LIEGE, priority 2012, dated 2017).

The nature of series [1]: Ex.3 neuroprotective HIE rat model: rectal temperature. The class given is in vivo. The conditions noted are these: E4 1, 5, 10, 50 mg/kg/day ip PND4-7 before HI; 0, 2, 4 h after hypoxia. Here is the method:
The rectal temperature of the rat pups was measured with a multipurpose thermometer (BAT-10R, Physitemp Instruments Inc., Clifton, N.J., US) along with a rectal probe (RET-4, BioMedical Instruments, Zollnitz, Germany) at 0, 2, and 4 hours after exposure to hypoxic insult. To keep the variability of the temperature low, measurements of rectal temperature were made in a 25° C. room 15 min after removal of the pups from the nest (except the 1st post-hypoxic measurement which was done immediately). It has been shown that the rectal temperature corresponds very well to the brain core temperature (Thoresen et al. 1996. Arch Dis Child Fetal Neonatal 74: F3-F9, Yager et al. 1993. Pediatr Res 34: 525-529).
Newborn rat pups were assigned to one of the following 6 groups from postnatal day 4: Sham group (n=24), Vehicle group (n=14), E4 1 mg/kg/per day group (n=11), E4 5 mg/kg/per day group (n=14), E4 10 mg/kg/per day group (n=14), or E4 50 mg/kg/per day group (n=19). From postnatal day 4, rat pups were intraperitoneally injected either vehicle (Vehicle group) or E4 (1, 5, 10, or 50 mg/kg/per day in accordance to the E4 group assignment) or neither vehicle nor E4 (Sham group). […]

Series [2] can be described thus: Ex.3 neuroprotective HIE rat model: body weight. The class given is in vivo. How it is done: Newborn rat pups were assigned to one of the following 6 groups from postnatal day 4: Sham group (n=24), Vehicle group (n=14), E4 1 mg/kg/per day group (n=11), E4 5 mg/kg/per day group (n=14), E4 10 mg/kg/per day group (n=14), or E4 50 mg/kg/per day group (n=19). From postnatal day 4, rat pups were intraperitoneally injected either vehicle (Vehicle group) or E4 (1, 5, 10, or 50 mg/kg/per day in accordance to the E4 group assignment) or neither vehicle nor E4 (Sham group). At day 7, 30 minutes after last injection, animals were anesthetized with isoflurane (induction, 3.0%; maintenance, 1.5%), and the rat pups from Vehicle and E4 groups passed through surgery encompassing left common carotid artery double ligation and cut. After the procedure, the pups were returned to their dams and were allowed to recover for 1 hour. The pups were then placed in the humidified hypoxic in vivo cabinet (CoyLab, Grass Lake, Mich., USA). Hypoxia was produced by the inhalation of 11%-8% of oxygen balanced by nitrogen at decreased concentration of oxygen for 20 minutes, followed by inhalation of 8% oxygen and 92% nitrogen at constant concentration for 35 minutes. All the manipulations were performed at 37° C. The Sham group went through similar procedures without left common carotid artery ligation followed by hypoxia nor injection. Rat pups recovered with their dams and reared normally until being sacrificed at postnatal day 14.
To monitor the post-operative well-being of the rat pups due to the performed manipulations and estetrol pre-treatment, the body weight was monitored from postnatal day 7 to day 14 inclusive.

In series [3] the test system is Microtubule-associated protein 2 (MAP2). Nature of the series: Ex.8 therapeutic HIE rat model: MAP2 staining. The format is in vivo. Here is the method:
To study the therapeutic effect of estetrol, newborn rat pups were assigned to one of the following 14 groups at postnatal day 7 (FIG. 23(B)): Sham group (n=12), Vehicle (n=15), 5 mg/kg/day E4 (n=11), 10 mg/kg/day E4 (n=11), 5 mg/kg/day E4+1.6 mg/kg/day PROG (n=11), 10 mg/kg/day E4+1.6 mg/kg/day PROG (n=11), 5 mg/kg/day E4+16 mg/kg/day PROG (n=11), 10 mg/kg/day E4+16 mg/kg/day PROG (n=13), 5 mg/kg/day E4+136 ng//kg/day E2 (n=11), 10 mg/kg/day E4+136 ng/kg/day E2 (n=11), 5 mg/kg/day E4+1.6 mg/kg/day PROG+136 ng/kg/day E2 (n=12), 10 mg/kg/day E4+1.6 mg/kg/day PROG+136 ng/kg/day E2 (n=11), 5 mg/kg/day E4+16 mg/kg/day PROG+136 ng/kg/day E2 (n=11), 10 mg/kg/day E4+16 mg/kg/day PROG+136 ng/kg/day (n=12) groups. […] After surgery, the pups were returned to their dams and allowed to recover for 1 hour. The pups were then placed in a humidified hypoxic in vivo cabinet (CoyLab). […]
The brain sections were processed for immunohistochemical detection of neuronal cytoskeletal disruption. […] Samples were analyzed with the aid of an image scanner (Nanozoomer Virtual Microscopy, Hamamatsu, Tokyo, Japan) and the ImageJ software (NIH, US). The positive areas in the ipsilateral and contralateral hemispheres were measured. The ratio of the MAP2 positive areas was calculated as the MAP2 positive area of the ipsilateral hemisphere divided by the MAP2 positive area of the contralateral hemisphere. […]

For series [4], the system named is cytosolic estrogen receptors. The conditions noted are these: competitive receptor binding, relative to E2; cited from earlier work.

Regarding `C[C@]12CC[C@@H]3c4ccc(O)cc4CC[C@H]3[C@@H]1[C@@H](O)[C@@H](O)[C@@H]2O` [E4, 1,3,5(10)-estratrien-3,15α,16α,17β-tetrol], in series [1], the rectal temperature result is recorded as “did not affect the body temperature”. For the same compound, the body weight entry in series [2] (1 mg/kg ip PND4-7 before HI, PND 10, 11 and 12, vs vehicle) is “significantly higher body weight than the vehicle group”; in series [2] (1 mg/kg ip PND4-7 before HI, PND 14, vs vehicle) it was “significantly higher body weight than the vehicle group”; in series [2] (5 mg/kg ip PND4-7 before HI, PND 8, 9, 10, 12, vs sham), “sham operated animals body weight was significantly higher”; in series [2] (5 mg/kg ip PND4-7 before HI, PND 14, vs vehicle), “significantly higher body weight than the vehicle group”; in series [2] (10 mg/kg ip PND4-7 before HI, PND 9, vs vehicle), “significantly higher body weight than the vehicle group”; in series [2] (10 mg/kg ip PND4-7 before HI, PND 10, 11 and 12, vs vehicle) it was “significantly higher body weight than the vehicle group”. Further, the body weight entry in series [2] (10 mg/kg ip PND4-7 before HI, PND 14, vs vehicle) is “significantly higher body weight than the vehicle group”; in series [2] (50 mg/kg ip PND4-7 before HI, PND 8, 9, 10, 12, vs sham), “sham operated animals body weight was significantly higher”; in series [2] (50 mg/kg ip PND4-7 before HI, PND 11, 13, 14, vs sham), “sham operated animals had significantly higher body weight”; in series [2] (estetrol pre-treated (1, 5, 10, 50 mg/kg) ip PND4-7 before HI, PND 8 and 13, vs vehicle), “significantly higher post-operative body weight than the vehicle pre-treated animals”. The “MAP-2 positive area ratio” value stood at 0.98±0.02 in series [3] (5 mg/kg/day E4) and 0.97±0.04 in series [3] (10 mg/kg/day E4). Besides, the “values for cytosolic estrogen receptor binding” value in series [4] was 0.015.
